From patent publication US7217511B2, “Methods of increasing antibiotic production in Streptomyces by deletion of the scbA gene” (Plant Bioscience Limited, priority 2000, dated 2007)

Key:
[1] = test system: ScbR
[2] = test system: S. coelicolor M751 (ΔscbA)
[3] = test system: S. coelicolor M751 (ΔscbA); remark: listed apart in the source
Protocol: (§1) Bioassay using spore suspension of M145(top), M751(left bottom) and M752(right bottom) as indicator strain and spotted with 1 μg of SCB1. The plates were incubated at 30° C. for 20 h (left panel) or 40 h (right panel).
(§2) γ-butyrolactones were isolated from liquid or solid media by extracting the culture supernant or the agar with ethylacetate. The ethylacetate was evaporated and the sample was resuspended in 100% methanol for use in a bioassay or for HPLC analysis. Bioassay and HPLC analysis were conducted as described previously (Takano et al., 2000).

[4] = test system: S. coelicolor M752 (ΔscbR)
Protocol: as §1, §2

[5] = test system: S. coelicolor M145
Protocol: as §1, §2

Sequence of ScbR (as listed by the source): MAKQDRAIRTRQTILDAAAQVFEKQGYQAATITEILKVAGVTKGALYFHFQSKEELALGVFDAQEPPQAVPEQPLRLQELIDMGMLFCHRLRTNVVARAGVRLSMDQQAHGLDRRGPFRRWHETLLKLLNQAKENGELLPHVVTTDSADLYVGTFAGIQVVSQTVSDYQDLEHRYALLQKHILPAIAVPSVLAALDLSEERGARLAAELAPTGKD

2-isocaryloyl-3R-hydroxymethyl-γ-butyrolactone [A-factor]
Formation of the DNA-protein complex (DNA-binding activity of ScbR) [1]: failed to inhibit

CC(C)CCCC[C@@H](O)[C@@H]1C(=O)OC[C@H]1CO [SCB1]
Level of scbR transcription [2]: marked increase | scbA transcription [2]: not restored | Effect of high concentrations of SCB1 on antibiotic production (lighter halo around the point of application) [3]: inhibitory effect | Response to exogenous SCB1 (antibiotic production in lawn) [4]: did not respond | Response to exogenous SCB1 (antibiotic production in lawn) [5]: responded in the expected way
